For orientation: MIC means the lowest concentration that inhibits growth of the organism.

The record followed here is ChEMBL document CHEMBL1157865, “Synthesis and evaluation of SQ109 analogues as potential anti-tuberculosis candidates” (2010).

The structures appear in SMILES notation. ≈ marks a conversion by molar mass, not a printed value.

In the assay the test system is Mycobacterium tuberculosis. Put plainly: Antimycobacterial activity against Mycobacterium tuberculosis H37Rv ATCC 25618 by BACTEC 460 radiometric method. Format: functional.
`CC(C)CCCC(C)CCCC(C)CCNCCNC1C2CC3CC(C2)CC1C3` (stereo unspecified) gave an MIC of 0.5 µM (≈ 0.202 µg/mL).
For the compound `CC(C)=CCC/C(C)=C/CNCCNC1C2CC3CC(C2)CC1C3` (stereo unspecified) [SQ109], the MIC was found to be 0.5 µM (≈ 0.165 µg/mL).
The result for `CC(C)=CCC/C(C)=C\CNCCNC12CC3CC(CC(C3)C1)C2` reads 1 µM (≈ 0.331 µg/mL); that for `CC(C)=CCC/C(C)=C/CC/C(C)=C/CNCCNC1C2CC3CC(C2)CC1C3` (stereo unspecified), 0.25 µM (≈ 0.0997 µg/mL); that for `CC(C)CCCC(C)CCNCCNC12CC3CC(CC(C3)C1)C2` (stereo unspecified), 0.5 µM (≈ 0.167 µg/mL).
The result for `CC(C)CCCC(C)CCNCCNC1C2CC3CC(C2)CC1C3` (stereo unspecified) reads 1 µM (≈ 0.335 µg/mL).
